These results are taken from patent publication US20190307820A1, “COMPOSITIONS AND METHODS OF USING STAT1/3 INHIBITORS WITH ONCOLYTIC HERPES VIRUS” (priority 2016, published 2019).

The subject of one test is subcutaneous U87 tumor. Kind of test: Subcutaneous U87 tumor bearing mice, tumor size after nifuroxazide. The test is classed as in vivo. The conditions noted are these: injected in the peritoneum, after 7 days treatment. On the procedure:
(§1) FIGS. 1A-1B are graphs that show an anti-tumor effect of nifuroxazide. (FIG. 1A) Cells were treated with indicated concentration of nifuroxazide for 72 hours. Cytotoxicity was measured by using MTT assay. (FIG. 1B) Subcutaneously U87 tumor bearing mice were peritoneally injected with indicated doses of nifuroxazide. Tumor size was measured using calipers at day 7 post nifuroxazide treatment.
(§2) In this example, the antitumor effect of nifuroxazide is evaluated in different tumor cells. Cells were treated with nifuroxazide for 72 hours (FIG. 1A). […] To verify the anti-tumor efficacy of nifuroxazide in vivo, animals with subcutaneous U87 tumor implants were injected in the peritoneum with vehicle, 1 mg/kg nifuroxazide and 50 mg/kg nifuroxazide. […] Tumor volume was reduced around 25% and 60% after 7 days treatment with 1 mg/kg nifuroxazide and 50 mg/kg nifuroxazide respectively (FIG. 1B).

The test system of a further test is BTUC cells. Briefly: MTT cytotoxicity assay, BTUC cells. The test is classed as cell-based. Conditions: 72 hours, read-out: Inhibitory concentration 50% (IC50). Here is the method:
as §1, §2
Cells were seeded in a 96-well plate at a density of 1×104 (U87). After overnight incubation, cells were treated with only vehicle or indicated MOI of virus or indicated concentration of drugs or reagents. After 2 to 3 days of treatment cell viability was measured by MTT assay (Sigma, Canada) according to the manufacturer's instruction. […] After overnight incubation with lysis buffer, cell viability was measured at 595 nm using a plate reader (Envision 2103 Multilabel reader, Perkin Elmer).

In the next test the target is T1, STAT3 (Homo sapiens, UniProt P40763).
T1 construct: Extracted protein was then subjected to western blot assay; endogenous in cells; host or cells: U87 cells, with or without HrR3 infection
It counts as cell-based. On the procedure:
(FIG. 5A) U87 cells were treated with HrR3 at a MOI of 5 and indicated concentration of nifuroxazide for 6 hours. Extracted protein was then subjected to western blot assay. (FIG. 5B) U87 cells were treated with indicated concentration of HrR3 or nifuroxazide or stattic or in combination for 72 hours. Cytotoxicity was measured by MTT assay. (FIG. 5C) Relative mRNA level (2^−ΔΔCT) is shown. Data are presented as mean SD, *P<0.05 vs corresponding vehicle treatment.
FIG. 19A and FIG. 19B, U87 cells (A) or CT26 cells (B) were treated with the indicated concentrations of HrR3 or NF or a combination. Total protein was extracted after 24 hours and subjected to western blot analysis. Band intensity was measured using Image J software and normalized to β-actin. Samples were run in triplicate and data are as means±S.E. Statistically significant differences are indicated by P<0.05 or P<0.01. FIG. 19C, Mice subcutaneously bearing U87 tumors were intratumorally injected with a single dose of HrR3 virus (1×10^6 PFU) and/or peritoneally injected doses of NF as indicated. Tumors were harvested on day 10 post treatment and total protein was extracted from a mouse of each treatment group and subjected to western blot analysis in triplicate. Results are reported as means±S.E.
Expression of key regulator of the Type1 interferon signaling, STAT1 and STAT3, was determined in nifuroxazide treated oHSV-1 infected U87 cells.
NF is a known inhibitor of STAT1 and STAT3. To evaluate the underlying molecular mechanism of the anti-tumour effect of the NF and oHSV-1 combination, the STAT1 and STAT3 status in U87 cells (FIG. 19A) and CT26 cells (FIG. 19B) cells was determined after an overnight treatment with NF and oncolytic viruses.

In test [1] the test system is oHSV-1 (G207) in U87 tumors. Briefly: U87 xenograft, C16 with G207: viral DNA qPCR and immunohistochemistry of tumors. It counts as in vivo, mice. Conditions: 5 mg/kg C16, day 13. Here is the method: FIG. 14A is a bar graph showing that C16 triggers oHSV-1 protein expression in microglia/macrophages and enhances virus concentration in glioblastoma in vivo. U87 xenograft mice were treated with vehicle or 5 mg/kg C16 with or without 6×10^6 PFU/ml oHSV-1 (G207) viruses (n=2). Two doses of G207 or vehicle and 4 doses (in every 3 or 4 days) of C16 was administered in total. Tumors were harvested at day 13 post-treatment. Total genomic DNA was extracted from the harvested tumors (n=2) and viral DNA (ICP27) was measured by qPCR (normalized to β-actin). Data shown are relative 2-ΔΔCT value±SE.
5 to 6 weeks old female athymic nude mice were obtained from Harlon laboratories. Human glioma U87 cells were implanted subcutaneously into the lower flank. When tumor size reached ˜75 to 100 mm3, vehicle or C16 (5 mg/kg) was administered intraperitoneally (IP). 2 days (FIG. 14) or 4 days (FIG. 15) after initial C16 administration, vehicle or oHSV-1 were injected intratumourally. Tumor volume was then measured using a caliper (Height×Length×Wide/2). At the end of the experiment, mice were euthanized by using CO2 asphyxiation.
DNA was extracted from 4% paraformaldehyde fixed tumor tissues by using an EZNA tissue DNA kit (Omega Bioteck). […]
In general terms: In qPCR the cycle at which signal appears reflects the starting amount.

T1 sequence (P40763 whole entry): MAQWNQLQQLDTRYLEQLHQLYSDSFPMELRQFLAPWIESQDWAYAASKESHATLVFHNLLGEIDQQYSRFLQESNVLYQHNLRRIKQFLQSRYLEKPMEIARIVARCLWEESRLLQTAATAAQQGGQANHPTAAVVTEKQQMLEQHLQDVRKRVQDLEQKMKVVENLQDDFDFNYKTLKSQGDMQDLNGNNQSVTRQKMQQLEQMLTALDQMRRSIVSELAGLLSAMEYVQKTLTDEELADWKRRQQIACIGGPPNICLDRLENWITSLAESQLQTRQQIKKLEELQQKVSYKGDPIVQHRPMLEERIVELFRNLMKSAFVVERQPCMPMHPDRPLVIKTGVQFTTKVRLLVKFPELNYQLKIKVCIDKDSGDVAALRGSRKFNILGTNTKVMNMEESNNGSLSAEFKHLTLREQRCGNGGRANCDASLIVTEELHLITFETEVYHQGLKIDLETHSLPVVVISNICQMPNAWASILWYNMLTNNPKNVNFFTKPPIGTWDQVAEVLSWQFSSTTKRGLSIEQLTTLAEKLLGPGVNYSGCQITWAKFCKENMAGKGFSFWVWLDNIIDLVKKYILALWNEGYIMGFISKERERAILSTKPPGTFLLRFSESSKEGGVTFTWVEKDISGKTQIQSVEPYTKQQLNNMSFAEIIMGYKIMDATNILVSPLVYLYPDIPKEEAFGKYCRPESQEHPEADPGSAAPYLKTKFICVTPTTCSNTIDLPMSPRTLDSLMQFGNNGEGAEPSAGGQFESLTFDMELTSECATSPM

On to `O=C(N/N=C/c1ccc([N+](=O)[O-])o1)c1ccc(O)cc1` [nifuroxazide, Benzoic acid, 4-hydroxy-, [(5-nitro-2-furanyl)metylene]hydrazide], for which the “Tumor volume was reduced” value in the test with subcutaneous U87 tumor (1 mg/kg nifuroxazide) is recorded as “around 25%”; with subcutaneous U87 tumor (50 mg/kg nifuroxazide) it was around 60%. In addition, in the test with BTUC cells, the IC50 is around 15 µM. For the same compound, the “HrR3 induced upregulation of STAT3 phosphorylation” value on STAT3 (24 hours) is given as “effectively suppressed”. Also, the STAT3 phosphorylation result at STAT3 (HrR3 MOI of 5, 6 hours) is “dose dependent STAT1 and STAT3 phosphorylation reduction”. Also, the “phosphorylation of STAT3” value at STAT3 (NF alone, 24 hours) was “dose dependent inhibition”.

With `O=C1Nc2ccc3ncsc3c2/C1=C/c1c[nH]cn1` [C16, 6,8-Dihydro-8-(1H-imidazol-5-ylmethylene)-7H-pyrrolo[2,3-g]benzothiazol-7-one], the “oHSV-1 titer in the tumor mass (viral DNA copy number, qPCR)” value in test [1] is recorded as “significantly enhanced oHSV-1 titer”.
